“Also recorded” adds a separate entry of the source.
What was measured:
CLP rats [1] = assay: Survival in cecal ligation and perforation (CLP) model of sepsis, LXA4 i.p.; assay type: in vivo, male Sprague-Dawley rats; conditions: 40 μg/kg i.p. five hours after CLP surgery; subgroup of rats that lived longer than 48 hours; vs vehicle treated CLP rats
Method: (§1) Surgery. Cecal ligation and perforation (CLP) was performed on male Sprague-Dawley rats (250-350 g) according to known methods (Chaudry, et al. (1979) Surgery 85:205-21). The CLP model of sepsis is an established, clinically relevant model of sepsis (Rittirsch et al., (2009) Nature Protocol 4(1):31-36). Animals were fasted overnight before surgery. On the day of surgery, rats were anesthetized with Isofluorane (+oxygen). A 2-cm-long midline incision was made in the abdomen to expose the cecum. Fecal matter was massaged into the cecum. The distal two-thirds of the cecum was ligated with 4.0 surgical silk. Using an 18-gauge needle, the cecum was punctured twice. Some fecal matter was massaged out of the cecum through these holes. The cecum was placed back into the abdomen, which was then closed. Saline (2 ml/100 g; s.c.) was injected to replace any fluids lost during surgery. Five hours after surgery, the rats were given either LXA4 (40 μg/kg rat; i.p.) or saline vehicle. […]
In this study, the effect of LXA4 in the clinically relevant cecal ligation and puncture (CLP) model of sepsis was analyzed. […]
Survival. […] As there was a significant change in the slope of the individual survival curves starting at 48 hours, the effects of LXA4 on systemic inflammatory mediator release, bacterial load and peritoneal leukocyte counts 48 hours after CLP sepsis were analyzed.

[2] = system: bacterial load in CLP rats; assay: Bacterial load (CFU) in blood and peritoneal lavage fluid after CLP; assay type: in vivo, male Sprague-Dawley rats; conditions: 40 μg/kg i.p. 5 h after CLP; 48 hours after CLP; vs saline vehicle
Method: as §1, with “vehicle. This concentration of LXA4 was derived from published in vivo work in rodents (Bannenberg et al., (2004) Br. J. Pharmacol. 143:43-52).” for “vehicle.”
Bacterial Load. […] At the end of the incubation period, colony forming units (CFU) were counted.
Bacterial Load. Bacterial load in blood and peritoneal lavage fluid was measured after plating of serially diluted samples on tryptic soy agar plates. […]

[3] = system: peritoneal leukocytes of CLP rats; assay: Peritoneal cell count and differential after CLP; assay type: in vivo, male Sprague-Dawley rats; conditions: 40 μg/kg i.p. 5 h after CLP; 48 hours after CLP; vs CLP rats given saline
Method: (§2) Surgery. Cecal ligation and perforation (CLP) was performed on male Sprague-Dawley rats (250-350 g) according to known methods (Chaudry, et al. (1979) Surgery 85:205-21). The CLP model of sepsis is an established, clinically relevant model of sepsis (Rittirsch et al., (2009) Nature Protocol 4(1):31-36). Animals were fasted overnight before surgery. On the day of surgery, rats were anesthetized with Isofluorane (+oxygen). A 2-cm-long midline incision was made in the abdomen to expose the cecum. Fecal matter was massaged into the cecum. The distal two-thirds of the cecum was ligated with 4.0 surgical silk. Using an 18-gauge needle, the cecum was punctured twice. Some fecal matter was massaged out of the cecum through these holes. The cecum was placed back into the abdomen, which was then closed. Saline (2 ml/100 g; s.c.) was injected to replace any fluids lost during surgery. Five hours after surgery, the rats were given either LXA4 (40 μg/kg rat; i.p.) or saline vehicle. This concentration of LXA4 was derived from published in vivo work in rodents (Bannenberg et al., (2004) Br. J. Pharmacol. 143:43-52). At the end of 48 hours, rats were anesthetized with pentobarbital (50 mg/kg, i.p.). A midline incision was made and the peritoneal cavity was lavaged with 20 ml of PBS containing 0.38% Na citrate (as anticoagulant).
Two hundred μl of lavage fluid was taken immediately for measurement of bacterial load. The rest of the fluid was passed through a […] (diameter) nylon mesh to remove debris and then centrifuged at 110×g for 7 minutes at 4° C. The supernatant was removed and stored at −80° C. for further analyses. Forty ml red blood cell lysis buffer was added to the cell pellet for 10 minutes with gentle inversion before being centrifuged again at 110×g (7 minutes; 4° C.). Cells were resuspended in 1 ml PBS.
Peritoneal Cell Differential. Peritoneal cells were counted using an automated hemocytometer (Beckman Coulter Counter; Z4) and then cytospun onto superfrost ++ slides. In order to perform cell differentials, DIFQUIK staining was performed according to manufacturer's instructions. […]

IL-6 = assay: Plasma IL-6 level after CLP; assay type: in vivo, male Sprague-Dawley rats; conditions: 40 μg/kg i.p. 5 h after CLP; 48 hours after CLP; vs saline vehicle
Method: as §2, with “A midline incision was made and the peritoneal cavity was lavaged with 20 ml of PBS containing 0.38% Na citrate (as anticoagulant).” left out
(§3) Plasma IL-6, MCP-1 and IL-10 Levels. Plasma IL-6, MCP-1 and IL-10 levels were measured using commercially available kits. […]

MCP-1 = assay: Plasma MCP-1 level after CLP; assay type: in vivo, male Sprague-Dawley rats; conditions: 40 μg/kg i.p. 5 h after CLP; 48 hours after CLP; vs saline vehicle
Method: as §1, with “vehicle. This concentration of LXA4 was derived from published in vivo work in rodents (Bannenberg et al., (2004) Br. J. Pharmacol. 143:43-52).” for “vehicle.”
Plasma IL-6, MCP-1 and IL-10 Levels. Plasma IL-6, MCP-1 and IL-10 levels were measured using commercially available kits.
Plasma MCP-1. […] Accordingly, plasma MCP-1 was measured as another marker of systemic inflammatory response. […]

IL-10 = assay: Plasma IL-10 level after CLP; assay type: in vivo, male Sprague-Dawley rats; conditions: 40 μg/kg i.p. 5 h after CLP; 48 hours after CLP; vs saline vehicle
Method: as §2, with “A midline incision was made and the peritoneal cavity was lavaged with 20 ml of PBS containing 0.38% Na citrate (as anticoagulant).” left out
as §3

CLP rats [4] = assay: Survival after CLP-induced sepsis, intravenous LXA4; assay type: in vivo; conditions: 8 μg/kg i.v., single dose 1 hour after CLP; monitored every 24 hours for 8 days
Method: as §1, with “vehicle. This concentration of LXA4 was derived from published in vivo work in rodents (Bannenberg et al., (2004) Br. J. Pharmacol. 143:43-52).” for “vehicle.”
To further examine the use of LXA4 in the treatment of sepsis, the effect intravenous LXA4 administration on survival after CLP-induced sepsis was examined. […] Survival was monitored every 24 hours for 8 days (FIG. 7).

CCCCC[C@H](O)/C=C/C=C\C=C\C=C\[C@@H](O)[C@@H](O)CCCC(=O)O [LXA4, 5S,6R,15S-trihydroxy-7E,9E,11Z,13E-Eicosatetraenoic acid]
survival (Kaplan-Meier, log-rank test) (CLP rats [1]): significantly increased survival; also recorded: increased survival rate | bacterial load in the peritoneal cavity (CFU) [2]: reduced bacterial load in the peritoneal cavity but the reduction did not reach significance | blood bacterial load (CFU) [2]: reduces blood bacterial load; also recorded: substantially reduced blood bacterial load | number of monocytes/macrophages in the peritoneal cavity [3]: increased the number of monocytes/macrophages | number of neutrophils in the peritoneal cavity [3]: without affecting the number of neutrophils; also recorded: number of neutrophils remained similar in both groups | total number of peritoneal cells (leukocytes) [3]: increased the total number of peritoneal cells; also recorded: increased peritoneal leukocytes further | plasma IL-6 levels (IL-6): reduced plasma levels of IL-6 | plasma MCP-1 levels (MCP-1): reduced plasma levels of MCP-1; also recorded: significantly reduced plasma MCP-1 levels | plasma IL-10 levels (IL-10): significantly decreased plasma IL-10 levels | survival (Kaplan-Meier, log rank test) (CLP rats [4]): significantly increased survival

From patent US20120220658A1, “Method for Treating Sepsis or Septic Shock” (University of Medicine and Dentistry of New Jersey, priority 2009, published 2012)
